Like-named read-outs stand apart in the source and are kept apart here.
System: DLD-1 BRCA2−/− cells
Test: Homologous recombination synthetic lethal inhibition of proliferation, DLD-1 BRCA2-/- (Cell Titre Glo 3D)
Type: cell-based
Details: Homo sapiens
Source text: This assay identifies anti-proliferative effects of POLQ compounds in the homologous recombination deficient colorectal cell line DLD-1 BRCA2−/− over 8-9 population doublings (7 days for DLD-1 and 12 days for DLD-1 BRCA2−/−). DLD1 BRCA2 wt are used as a control to detect cell toxic effects not specific to homologous recombination deficiency.
DLD-1 BRCA2−/− and DLD-1 cells were kept in continuous culture in Assay Medium (RPMI 1640 phenol red free (Sigma R7509) containing 1% GlutaMAX (Gibco 35050) and 10% Foetal Bovine Serum (Gibco 10270-106)). On the day of the assay cells in culture of ˜80-90% confluent were used. Cell monolayers were washed with 10 mL PBS, then removed and added 2 mL TrypLE Express (Gibco 12604). The cells with TrypLE Express were incubated for 5 minutes in cell culture incubator and then the detached cells resuspend in 15 mL Assay Medium. Cells were counted using a ViCell and the cell images were monitored for clumps of cells, ideally they should be single or <3 cell clusters. The cells were diluted to 3,000 cells/mL of DLD-1 BRCA2−/− and 1,500 cells/mL of DLD-1 in Assay Medium and 100 μL added per well of transparent bottomed, black, tissue culture-treated 96-well plates (CoStar, No. 3904) Assay Ready Plates. The Assay Ready Plates contain a 10 point 10 μM to 0.51 nM dose range with three-fold dilutions in DMSO with a final volume of 100 nL. The plates were incubated at 37° C. with 5% C02 for 6 days. On day 6, 100 μL/well of Assay Medium was added to duplicate Assay Ready Plates. 90 μL of culture medium was removed from the cell plates and replenished with the Assay Media and compounds from the duplicate Assay Ready Plates using the Bravo. The plates were further incubated at 37° C. with 5% CO2. On day 7 the plates containing DLD-1 and Cell Titre Glo 3D (Promega G9683) were equilibrated to room temperature, then 60 μL of Cell Titre Glo 3D was added per well and incubated on a shaking platform for 30 min. Plates were read on the Envision measuring luminescence for 1 second per well. On day 12 the plates containing DLD-1 BRCA2−/− cells and Cell Titre Glo 3D (Promega G9683) were equilibrated to room temperature, then 60 μL Cell Titre Glo 3D added per well and incubated on a shaking platform for 30 min. Plates were read on the Envision measuring luminescence for 1 second per well. The data was exported into a suitable software package (such as Genedata) to perform curve fitting analysis. Inhibition of cell proliferation was expressed as an IC5o value and was determined by calculation of the concentration of compound that was required to give a 50% reduction of the average maximum Total Intensity signal.

[1] = DLD-1, first proliferation column (c5), DLD-1 BRCA2-/-, read-out: POLQ PD Prolif Lumin (converted)
[2] = DLD-1, DLD-1 BRCA2 −/− cells, mean, read-out: POLQ PD Prolif Lumin BRCA2 −/− mean pIC50 (converted)
[3] = DLD-1, first proliferation column (c5), taken as DLD-1 BRCA2-/-, read-out: POLQ PD Prolif Lumin (converted)
[4] = DLD-1, DLD-1 BRCA2-/- proliferation, column head only partly shown, read-out: POLQ PD Prolif Lumin (converted)

Cc1ccnc(Cn2c(-c3ccc(OCC(=O)N4CC[C@@H](C#N)C4)cc3Cl)nc3c(OC4(C)CC4)ncnc32)c1 [Example T538, (R)-1-(2-(3-chloro-4-(6-(1-methylcyclopropoxy)-9-((4-methylpyridin-2-yl)methyl)-9H-purin-8-yl)phenoxy)acetyl)pyrrolidine-3-carbonitrile]
IC50 [1]: 501 nM

Cc1ccnc(Cn2c(-c3ccc(C(=O)NC4CC4)cc3Cl)nc3c(OC4(C)CC4)ncnc32)c1 [Example T170, 3-chloro-N-cyclopropyl-4-(6-(1-methylcyclopropoxy)-9-((4-methylpyridin-2-yl)methyl)-9H-purin-8-yl)benzamide]
IC50 [1]: 631 nM

Cc1ccnc(Cn2c(-c3ccc(OCC(=O)NC4CC(O)C4)cc3Cl)nc3c(OC4(C)CC4)ncnc32)c1 (centres unmarked) [Example T479, 2-(3-chloro-4-(6-(1-methylcyclopropoxy)-9-((4-methylpyridin-2-yl)methyl)-9H-purin-8-yl)phenoxy)-N-(3-hydroxycyclobutyl)acetamide]
IC50 (DLD-1, proliferation, luminescence, taken as DLD-1 BRCA2-/-, read-out: POLQ PD Prolif Lumin (converted)): 398 nM

Cc1ccnc(Cn2c(-c3ccc(O[C@H]4CNC(=O)C4)cc3Cl)nc3c(OC4(C)CC4)ncnc32)c1 [Example T183, (R)-4-(3-chloro-4-(6-(1-methylcyclopropoxy)-9-((4-methylpyridin-2-yl)methyl)-9H-purin-8-yl)phenoxy)pyrrolidin-2-one]
IC50 [1]: 398 nM

Cc1ccnc(Cn2c(-c3ccc(CC(=O)N4CC(N5CCC5)C4)cc3Cl)nc3c(OC4(C)CC4)ncnc32)c1 [Example T603, 1-([1,3′-biazetidin]-1′-yl)-2-(3-chloro-4-(6-(1-methylcyclopropoxy)-9-((4-methylpyridin-2-yl)methyl)-9H-purin-8-yl)phenyl)ethan-1-one]
IC50 (DLD-1, first proliferation column, DLD-1 BRCA2-/-, read-out: POLQ PD Prolif Lumin (converted)): 794 nM

Cc1ccnc(Cn2c(-c3ccc(OCC(=O)N4CCC[C@H](F)C4)cc3Cl)nc3c(OC4(C)CC4)ncnc32)c1 [Example T552, (S)-2-(3-chloro-4-(6-(1-methylcyclopropoxy)-9-((4-methylpyridin-2-yl)methyl)-9H-purin-8-yl)phenoxy)-1-(3-fluoropiperidin-1-yl)ethan-1-one]
IC50 [1]: 158 nM

CC(CCOc1ccc(-c2nc3c(OC4(C)CC4)ncnc3n2Cc2cc(C(F)(F)F)cc(Cl)c2F)c(Cl)c1)C(=O)O (racemic) [Example U35, 4-(3-chloro-4-(9-(3-chloro-2-fluoro-5-(trifluoromethyl)benzyl)-6-(1-methylcyclopropoxy)-9H-purin-8-yl)phenoxy)-2-methylbutanoic acid]
IC50 (DLD-1, DLD-1 BRCA2 −/−, mean, read-out: POLQ PD Prolif Lumin BRCA2 −/− mean pIC50 (converted)): 158 nM

CC1(Oc2ncnc3c2nc(-c2ccc(OCCN4CCNCC4C(F)F)cc2Cl)n3Cc2ccccc2)CC1 (centres unmarked) [Example T567, 9-benzyl-8-(2-chloro-4-(2-(2-(difluoromethyl)piperazin-1-yl)ethoxy)phenyl)-6-(1-methylcyclopropoxy)-9H-purine]
IC50 [1]: 158 nM

CNC(=O)COc1ccc(-c2nc3c(OC4(C)CC4)ncnc3n2Cc2cncs2)c(Cl)c1 [Example T8, 2-(3-chloro-4-(6-(1-methylcyclopropoxy)-9-(thiazol-5-ylmethyl)-9H-purin-8-yl)phenoxy)-N-methylacetamide]
IC50 [2]: 5010 nM

CC1(Oc2ncnc3c2nc(-c2ccc(CC(N)=O)cc2Cl)n3Cc2cncc(C#N)c2)CC1 [Example T39, 2-(3-chloro-4-(9-((5-cyanopyridin-3-yl)methyl)-6-(1-methylcyclopropoxy)-9H-purin-8-yl)phenyl)acetamide]
IC50 [2]: 6310 nM

Cc1cccc(Cn2c(-c3ccc(CC(N)=O)cc3Cl)nc3c(OC4(C)CC4)ncnc32)c1 [Example T99, 2-(3-chloro-4-(9-(3-methylbenzyl)-6-(1-methylcyclopropoxy)-9H-purin-8-yl)phenyl)acetamide]
IC50 [2]: 79.4 nM

Cc1nn(C)cc1Cn1c(-c2ccc(CC(N)=O)cc2Cl)nc2c(OC3(C)CC3)ncnc21 [Example T33, 2-(3-chloro-4-(9-((1,3-dimethyl-1H-pyrazol-4-yl)methyl)-6-(1-methylcyclopropoxy)-9H-purin-8-yl)phenyl)acetamide]
IC50 [2]: > 10000 nM

Cc1ccnc(Cn2c(-c3ccc(C(=O)N4CCCC4)cc3Cl)nc3c(OC4(C)CC4)ncnc32)c1 [Example T309, (3-chloro-4-(6-(1-methylcyclopropoxy)-9-((4-methylpyridin-2-yl)methyl)-9H-purin-8-yl)phenyl)(pyrrolidin-1-yl)methanone]
IC50 [3]: 631 nM

Cc1cccc(Cn2c(-c3ccc(OCCC(=O)O)cc3Cl)nc3c(OC4(C)CC4)ncnc32)c1 [Example T167, 3-(3-chloro-4-(9-(3-methylbenzyl)-6-(1-methylcyclopropoxy)-9H-purin-8-yl)phenoxy)propanoic acid]
IC50 [1]: 794 nM

Cc1ccnc(Cn2c(-c3ccc(N4CC[C@H](C(N)=O)C4)cc3Cl)nc3c(OC4(C)CC4)ncnc32)c1 [Example T340, (S)-1-(3-chloro-4-(6-(1-methylcyclopropoxy)-9-((4-methylpyridin-2-yl)methyl)-9H-purin-8-yl)phenyl)pyrrolidine-3-carboxamide]
IC50 [3]: 1260 nM

Cc1ccnc(Cn2c(-c3ccc(CCNC(=O)CO)cc3Cl)nc3c(OC4(C)CC4)ncnc32)c1 [Example T223, N-(3-chloro-4-(6-(1-methylcyclopropoxy)-9-((4-methylpyridin-2-yl)methyl)-9H-purin-8-yl)phenethyl)-2-hydroxyacetamide]
IC50 [4]: 501 nM

COCCOc1ccc(-c2nc3c(OC4(C)CC4)ncnc3n2Cc2cc(C)ccn2)c(Cl)c1 [Example T125, 8-(2-chloro-4-(2-methoxyethoxy)phenyl)-6-(1-methylcyclopropoxy)-9-((4-methylpyridin-2-yl)methyl)-9H-purine]
IC50 [1]: 100 nM

CC1(Oc2ncnc3c2nc(-c2ccc(CCCCC(=O)O)cc2Cl)n3Cc2cccc(Cl)c2)CC1 [Example T289, 5-(3-chloro-4-(9-(3-chlorobenzyl)-6-(1-methylcyclopropoxy)-9H-purin-8-yl)phenyl)pentanoic acid]
IC50 [4]: 126 nM

Cc1ccnc(Cn2c(-c3ccc(O[C@H]4CCOC4)cc3Cl)nc3c(OC4(C)CC4)ncnc32)c1 [Example T196, (S)-8-(2-chloro-4-((tetrahydrofuran-3-yl)oxy)phenyl)-6-(1-methylcyclopropoxy)-9-((4-methylpyridin-2-yl)methyl)-9H-purine]
IC50 [1]: 100 nM

Cc1ccnc(Cn2c(-c3ccc(N4CCC5(CNC5)C4)cc3Cl)nc3c(OC4(C)CC4)ncnc32)c1 [Example T490, 8-(2-chloro-4-(2,6-diazaspiro[3.4]octan-6-yl)phenyl)-6-(1-methylcyclopropoxy)-9-((4-methylpyridin-2-yl)methyl)-9H-purine]
IC50 [1]: 2000 nM

Cc1ccnc(Cn2c(-c3ccc(OC4CCc5nccn5C4)cc3Cl)nc3c(OC4(C)CC4)ncnc32)c1 (single isomer, unassigned) [Example T536, 8-(2-chloro-4-((5,6,7,8-tetrahydroimidazo[1,2-a]pyridin-6-yl)oxy)phenyl)-6-(1-methylcyclopropoxy)-9-((4-methylpyridin-2-yl)methyl)-9H-purine]
IC50 [1]: 501 nM

Cc1ccnc(Cn2c(-c3ccc(OCCNC(=O)[C@@H](C)O)cc3Cl)nc3c(OC4(C)CC4)ncnc32)c1 [Example T375, (R)-N-(2-(3-chloro-4-(6-(1-methylcyclopropoxy)-9-((4-methylpyridin-2-yl)methyl)-9H-purin-8-yl)phenoxy)ethyl)-2-hydroxypropanamide]
IC50 [3]: 251 nM

CC1(Oc2ncnc3c2nc(-c2ccc(CC(N)=O)cc2Cl)n3Cc2cc(C#N)ccc2F)CC1 [Example T77, 2-(3-chloro-4-(9-(5-cyano-2-fluorobenzyl)-6-(1-methylcyclopropoxy)-9H-purin-8-yl)phenyl)acetamide]
IC50 [2]: 158 nM

Source: patent publication US20250195530A1, “POLQ INHIBITORS” (ASTRAZENECA AB, priority 2022, published 2025)
